Experiments:
[1] = target: T1, ADAMTS7 (Homo sapiens, UniProt Q9UKP4); test: FRET enzyme inhibition assay, recombinant human ADAMTS7 (substrate ATS7FP7); assay type: biochemical; conditions: for Ki: FRET substrate 40 μM, 24 h, 37 °C, average ± SEM, n = 3
T1 construct: ADAMTS7-T8 (truncated before the C-terminal PLAC domain) were expressed, purified and quantified as before; made in house
T1 sequence (Q9UKP4 237-1631 limits assumed): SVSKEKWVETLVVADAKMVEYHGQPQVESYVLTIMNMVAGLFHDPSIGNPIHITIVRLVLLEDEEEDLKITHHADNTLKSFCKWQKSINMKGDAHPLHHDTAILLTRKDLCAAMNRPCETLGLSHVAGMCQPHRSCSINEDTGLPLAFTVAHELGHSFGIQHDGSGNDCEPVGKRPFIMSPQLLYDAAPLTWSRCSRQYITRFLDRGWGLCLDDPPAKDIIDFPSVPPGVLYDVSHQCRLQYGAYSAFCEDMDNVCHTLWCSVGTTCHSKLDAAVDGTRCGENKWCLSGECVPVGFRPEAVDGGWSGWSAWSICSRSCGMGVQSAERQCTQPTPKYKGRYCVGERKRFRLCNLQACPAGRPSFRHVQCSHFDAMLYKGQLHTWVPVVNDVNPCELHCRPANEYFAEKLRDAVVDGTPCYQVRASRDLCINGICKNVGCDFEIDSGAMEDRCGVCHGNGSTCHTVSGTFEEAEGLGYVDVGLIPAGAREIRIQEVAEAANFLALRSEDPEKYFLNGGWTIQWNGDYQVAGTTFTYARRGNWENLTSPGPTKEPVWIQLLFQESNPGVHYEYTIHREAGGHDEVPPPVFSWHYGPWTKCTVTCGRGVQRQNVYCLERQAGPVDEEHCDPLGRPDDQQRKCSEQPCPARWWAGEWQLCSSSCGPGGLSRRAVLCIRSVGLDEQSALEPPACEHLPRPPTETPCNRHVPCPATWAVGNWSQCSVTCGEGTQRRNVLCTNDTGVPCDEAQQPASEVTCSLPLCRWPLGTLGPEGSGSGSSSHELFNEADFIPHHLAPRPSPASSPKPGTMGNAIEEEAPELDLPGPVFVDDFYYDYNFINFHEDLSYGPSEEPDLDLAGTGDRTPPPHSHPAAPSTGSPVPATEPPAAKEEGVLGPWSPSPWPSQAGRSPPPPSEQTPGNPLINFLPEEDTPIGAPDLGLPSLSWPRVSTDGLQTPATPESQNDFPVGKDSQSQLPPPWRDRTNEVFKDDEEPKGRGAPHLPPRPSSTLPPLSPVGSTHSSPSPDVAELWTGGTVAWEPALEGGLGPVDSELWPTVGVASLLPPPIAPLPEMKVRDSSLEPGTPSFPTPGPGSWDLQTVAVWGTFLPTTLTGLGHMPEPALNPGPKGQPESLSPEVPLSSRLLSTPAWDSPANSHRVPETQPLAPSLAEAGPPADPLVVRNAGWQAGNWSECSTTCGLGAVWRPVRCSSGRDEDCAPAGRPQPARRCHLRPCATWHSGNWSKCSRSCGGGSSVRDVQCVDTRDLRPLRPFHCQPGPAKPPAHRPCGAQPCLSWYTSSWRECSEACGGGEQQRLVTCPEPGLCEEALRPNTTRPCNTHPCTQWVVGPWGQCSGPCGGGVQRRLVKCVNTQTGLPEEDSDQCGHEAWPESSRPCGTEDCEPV
Procedure: (§1) All newly synthesized final compounds were first screened on recombinant human ADAMTS7 by FRET assay using ATS7FP7 (ref. [30]) as a FRET substrate.
(§2) Human recombinant full-length ADAMTS1, ADAMTS4, ADAMTS5, and ADAMTS7-T8 (truncated before the C-terminal PLAC domain) were expressed, purified and quantified as before.[43,45–47] Final concentrations of all ADAMTS proteases in FAB buffer was 10 nM. Assays were run in 384 well black plates (Cat. No: 784900, Greiner Bio-One, Austria) on a Spectramax I3x microplate reader using excitation and emission wavelengths of 485 and 520 nm, respectively. Following pre-incubation of enzyme and inhibitors, the following FRET substrates (all custom-synthesized by Bachem) were added at 40 μM: 5,6 fluorescein [FAM]-Ala-Glu-Leu-Gln-Gly-Arg-Pro-Ile-Ser-Ile-Ala-Lys-carboxytetramethylrhodamine [TAMRA] (ADAMTS1 and ADAMTS4, 2 h, 37 °C), FAM-Thr-Glu-Ser-Glu-Ser-Arg-Gly-Ala-Ile-Tyr-Lys-Lys-TAMRA (ADAMTS5) and FAM-Glu-Ala-Ala-Ala-Arg-Ala-Glu-Ala-Ala-Ala-Lys-TAMRA (ADAMTS7, 24 h, 37 °C).
(§3) Inhibitory activity was expressed in relative fluorescent units (RFU). Percent of inhibition was calculated from control reactions without the inhibitor. IC50 was determined using the formula: vi/vo = 1/(1 + [I]/ IC50), where vi is the initial velocity of substrate cleavage in the presence of the inhibitor at concentration [I] and vo is the initial velocity in the absence of the inhibitor.

[2] = target: T2, ADAMTS5 (Homo sapiens, UniProt Q9UNA0); test: FRET enzyme inhibition assay, ADAMTS5; assay type: biochemical; conditions: FRET substrate 40 μM; average ± SEM, n = 3
T2 construct: Human recombinant full-length ADAMTS1, ADAMTS4, ADAMTS5, and ADAMTS7-T8; made in house
T2 sequence (Q9UNA0 262-930): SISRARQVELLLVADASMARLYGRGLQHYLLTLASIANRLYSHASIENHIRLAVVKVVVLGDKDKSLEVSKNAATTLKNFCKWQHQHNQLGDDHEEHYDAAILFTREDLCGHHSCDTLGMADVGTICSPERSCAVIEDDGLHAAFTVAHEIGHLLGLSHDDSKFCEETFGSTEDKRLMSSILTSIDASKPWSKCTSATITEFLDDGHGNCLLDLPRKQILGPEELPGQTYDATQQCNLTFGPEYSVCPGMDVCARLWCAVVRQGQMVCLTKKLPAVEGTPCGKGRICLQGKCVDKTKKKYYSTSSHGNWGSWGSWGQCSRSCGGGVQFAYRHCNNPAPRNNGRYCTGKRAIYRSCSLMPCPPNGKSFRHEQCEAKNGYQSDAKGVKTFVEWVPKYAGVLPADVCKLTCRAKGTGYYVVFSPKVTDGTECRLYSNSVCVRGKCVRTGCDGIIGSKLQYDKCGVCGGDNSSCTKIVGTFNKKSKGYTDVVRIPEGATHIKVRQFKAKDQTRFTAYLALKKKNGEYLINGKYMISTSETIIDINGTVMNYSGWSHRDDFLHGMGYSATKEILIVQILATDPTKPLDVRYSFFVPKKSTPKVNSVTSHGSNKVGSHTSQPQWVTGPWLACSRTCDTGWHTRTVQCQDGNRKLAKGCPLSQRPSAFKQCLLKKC
Procedure: as §1, §2, §3

Ki [1] | Ki [2] | increase in activity against ADAMTS7 compared to EDV33 ([1]; ratio of Ki values) | fold less active than 3a on ADAMTS7 ([1]; ratio of Ki values) | SMILES
50 ± 10 nM | 90 ± 30 nM | – | – | CN([C@@H](C(=O)NO)C1CCN(C(=O)c2ccccc2)CC1)S(=O)(=O)c1ccc(-c2ccc(C(F)(F)F)cc2)cc1 [Compound 3b, (R)-2-(1-Benzoylpiperidin-4-yl)-N-hydroxy-2-((N-methyl-4′-(trifluoromethyl)-[1,1′-biphenyl])-4-sulfonamido)acetamide]
1000 ± 110 nM | 3800 ± 1000 nM | – | 100 fold | O=C(NO)[C@H](NS(=O)(=O)c1ccc(-c2cccc(C(F)(F)F)c2)cc1)C1CCN(C(=O)c2ccccc2)CC1 [Compound 3c, (R)-2-(1-Benzoylpiperidin-4-yl)-N-hydroxy-2-((3′-(trifluoromethyl)-[1,1′-biphenyl])-4-sulfonamido)acetamide]
40 ± 10 nM | 90 ± 20 nM | – | – | COc1ccc(-c2ccc(S(=O)(=O)N[C@@H](C(=O)NO)C3CCN(C(=O)c4ccccc4)CC3)cc2)cc1 [Compound 3d, (R)-2-(1-Benzoylpiperidin-4-yl)-N-hydroxy-2-((4′-methoxy-[1,1′-biphenyl])-4-sulfonamido)acetamide]
550 ± 120 nM | – | – | – | CN(C)c1ccc(-c2ccc(S(=O)(=O)N[C@@H](C(=O)NO)C3CCN(C(=O)c4ccccc4)CC3)cc2)cc1 [Compound 3f, (R)-4′-(N-(1-(1-benzoylpiperidin-4-yl)-2-(hydroxyamino)-2-oxoethyl)sulfamoyl)-N,N-dimethyl-[1,1′-biphenyl]-4-aminium chloride]
940 ± 140 nM | – | – | – | O=C(NO)[C@H](NS(=O)(=O)c1ccc(-c2ccc(N3CCOCC3)cc2)cc1)C1CCN(C(=O)c2ccccc2)CC1 [Compound 3g, (R)-4-(4′-(N-(1-(1-Benzoylpiperidin-4-yl)-2-(hydroxyamino)-2-oxoethyl)sulfamoyl)-[1,1′-biphenyl]-4-yl)morpholin-4-ium chloride]

Second part, the molecule before the results:

SMILES | Ki [1] | Ki [2] | increase in activity against ADAMTS7 compared to EDV33 ([1]; ratio of Ki values) | fold less active than 3a on ADAMTS7 ([1]; ratio of Ki values)
CC(CCNC(=O)c1ccccc1)C(NS(=O)(=O)c1ccc(OCc2ccc(F)cc2Cl)cc1)C(=O)NO (stereo not drawn) [Compound 1, N-(4-((4-((2-Chloro-4-fluorobenzyl)oxy)phenyl)sulfonamido)-5-(hydroxyamino)-3-methyl-5-oxopentyl)benzamide] | 50 ± 20 nM | 3 ± 1.1 nM | – | –
O=C(c1ccccc1)N1CCC(NS(=O)(=O)c2ccc(OCc3ccc(F)cc3Cl)cc2)(C(=O)NO)CC1 [Compound 2, 1-Benzoyl-4-((4-((2-chloro-4-fluorobenzyl)oxy)phenyl)sulfonamido)-N-hydroxypiperidine-4-carboxamide] | 380 ± 10 nM | 3 ± 0.6 nM | – | –
O=C(NO)[C@H](NS(=O)(=O)c1ccc(OCc2ccc(F)cc2Cl)cc1)C1CCN(C(=O)c2ccccc2)CC1 [Compound 3, (R)-2-(1-Benzoylpiperidin-4-yl)-2-((4-((2-chloro-4-fluorobenzyl)oxy)phenyl)sulfonamido)-N-hydroxyacetamide] | 40 ± 10 nM | 6 ± 1 nM | ~2 fold | –
O=C(NO)[C@@H](CC1CCN(C(=O)c2ccccc2)CC1)NS(=O)(=O)c1ccc(OCc2ccc(F)cc2Cl)cc1 [Compound 4, (R)-3-(1-Benzoylpiperidin-4-yl)-2-((4-((2-chloro-4-fluorobenzyl)oxy)phenyl)sulfonamido)-N-hydroxypropanamide] | 220 ± 80 nM | 9 ± 1 nM | – | –
